The target in test [1] is T1, VEGF Receptor 2 Kinase (VEGFR2) (Homo sapiens, UniProt P35968).
T1 construct: made in house; host or cells: SF-21 insect cells, recombinant baculovirus BAC-VEGFR2 (pFASTBAC1)
Nature of the test: Determination of VEGF receptor 2 kinase (VEGFR2) inhibitory activity (alpha screen). Conditions: VEGFR2 intracellular domain protein, 25 μM ATP buffer, read-out: inhibitory rate (kinase inhibitory rate of VEGFR2). The test is classed as biochemical. The method, then: For cloning of human VEGF receptor 2 (hereinafter to be abbreviated as VEGFR2) gene, PCR was performed using cDNA Libraries Human Placenta (Clontech) as a template. The primer used for PCR was prepared by, based on the information of the base sequence (Genbank Accession AF035121) of VEGFR2 gene, adding a base sequence encoding the flag peptide and a restriction enzyme recognition sequence to the base sequence (2671-4374 of Genbank Accession AF035121) encoding the VEGFR2 intracellular domain, so that a flag tag would be added to the N terminal of the protein. The primer base sequence is shown in the following.
PCR reaction was carried out using a KOD-plus kit (TOYOBO). The obtained PCR product was electrophoresed on an agarose gel (1%), and a DNA fragment amplified by PCR was recovered from the gel and digested with restriction enzymes Sal I and Sph I. The DNA after the restriction enzyme treatment was electrophoresed on an agarose gel (1%), and the obtained DNA fragment was recovered and ligated to the plasmid pFASTBAC1 (Invitrogen) digested with restriction enzymes Sal I and Sph I to give an expression plasmid pFB-VEGFR2. The base sequence of the inserted fragment was confirmed to have matched with the base sequence (2671-4374 of Genbank Accession AF035121) of the VEGFR2 intracellular domain. Furthermore, virus stock BAC-VEGFR2 of the recombinant Baculovirus was prepared using BAC-TO-BAC Baculovirus Expression System (Invitrogen).
SF-21 cells were inoculated into 1 L of Sf-900IISFM medium (Invitrogen) containing 10% fetal calf serum (trace), 50 mg/L Gentamicin (Invitrogen) and 0.1% Pluronic F-68 (Invitrogen) at 1×10^6 cells/ml, and shake culture was performed using a 2 L Erlenmeyer flask at 27° C., 100 rpm. After 24 hr of culture, recombinant Baculovirus BAC-VEGFR2 (13.4 mL) was added, and the culture was continued for 3 days. The culture medium was centrifuged at 2,000 rpm for 5 min to give virus-infected cells. The infected cells were washed with phosphate buffered saline (Invitrogen), centrifuged under the same conditions, and preserved at −80° C. The cryopreserved cells were thawed in ice, suspended in 30 mL of buffer A (Tris buffer, pH 7.4, containing 20% glycerol and 0.15M NaCl (50 mM)) supplemented with Complete Protease Inhibitor (Boehringer), and disrupted three times using a polytron homogenizer (Kinematica) at 20,000 rpm, 30 sec. The disrupt was clarified by centrifugation at 40,000 rpm, 30 min and filtered through a 0.45 μm filter. The filtrate was passed through a column packed with Anti-FLAG M2 Affinity Gel (Sigma Ltd., 4 mL) at a flow rate of about 0.5 mL/min. The column was washed with buffer A and eluted with buffer A containing 100 μg/mL FLAG peptide. The eluate was concentrated by Vivaspin 20 (Viva Science) having a fraction molecular weight of 30K. The concentrate was applied to NAP™ 25 column (Amersham Biosciences) equilibrated with buffer A for buffer exchange. The fractions containing the VEGFR2 intracellular domain protein were collected, glycerol was added to the final concentration of 50% and the fractions cryopreserved at ˜80° C.
The test compound dissolved in dimethyl sulfoxide (DMSO) was diluted with a buffer (50 mM Tris-HCl, pH 7.5, 5 mM MgCl2, 5 mM MnCl2, 2 mM dithiothreitol, 0.01% Tween-20). A buffer (10 μl) containing 50 ng/ml VEGFR2 intracellular domain protein and 250 ng/ml biotin-labeled polypeptide biotinyl-poly-Glu:Tyr (4:1) (CIS Bio International) was added to the compound solution (5 μl). A buffer (10 μl) containing 25 μM ATP was added to the obtained mixture, the mixture was allowed to react at 25° C. for 5 min. Then, 25 μl of a stop solution (100 mM EDTA·2 sodium salt, 62.5 mM HEPES buffer (pH 7.4), 250 mM NaCl, 0.1% bovine serum albumin, 10 μg/ml Streptavidin Donor beads: PerkinElmer for alpha screen assay, 10 μg/ml Anti-phosphotyrosine (P-Tyr-100) Acceptor beads: PerkinElmer for alpha screen assay) was added to quench the reaction. […]

In test [2] the target is T2, PDGFR Alpha Receptor Kinase (PDGFRalpha) (Homo sapiens, UniProt P16234).
T2 construct: PDGFRalpha intracellular domain protein (UPSTATE); purchased UPSTATE
T2 sequence (P16234 550-1089 limits assumed): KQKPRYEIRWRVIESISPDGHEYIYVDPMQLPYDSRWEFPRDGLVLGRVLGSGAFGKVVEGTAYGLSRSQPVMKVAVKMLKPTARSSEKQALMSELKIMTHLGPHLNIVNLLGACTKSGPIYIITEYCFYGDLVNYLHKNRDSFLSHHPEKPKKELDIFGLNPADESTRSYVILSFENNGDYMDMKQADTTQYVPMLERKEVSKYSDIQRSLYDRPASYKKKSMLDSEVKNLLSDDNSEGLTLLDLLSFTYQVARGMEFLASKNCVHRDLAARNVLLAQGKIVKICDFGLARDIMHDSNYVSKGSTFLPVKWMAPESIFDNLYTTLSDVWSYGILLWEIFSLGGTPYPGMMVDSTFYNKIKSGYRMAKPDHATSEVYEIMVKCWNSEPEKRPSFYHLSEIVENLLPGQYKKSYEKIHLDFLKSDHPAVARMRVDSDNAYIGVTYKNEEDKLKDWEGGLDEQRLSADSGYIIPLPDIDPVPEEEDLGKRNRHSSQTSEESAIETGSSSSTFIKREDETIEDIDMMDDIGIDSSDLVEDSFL
Nature of the test: Determination of PDGFR alpha receptor kinase (PDGFRalpha) inhibitory activity (alpha screen). Conditions: PDGFRalpha intracellular domain protein, 25 μM ATP buffer; read-out: IC50 value (PDGFRalpha kinase inhibition). The test is classed as biochemical. The procedure:
The test compound dissolved in dimethyl sulfoxide (DMSO) was diluted with a buffer (50 mM Tris-HCl, pH 7.5, 5 mM MgCl2, 5 mM MnCl2, 2 mM dithiothreitol, 0.01% Tween-20).
Acceptor beads: PerkinElmer for alpha screen assay) was added to quench the reaction. The reaction solution was stood at 25° C. for 16 hr, and the count was measured using a plate reader·Fusion™ (manufactured by PerkinElmer). The kinase inhibitory rate (%) of the test compound was calculated by the following formula.
(§1) Inhibitory rate(%)=(1−(count of test compound−blank)÷(control−blank))×100
(§2) wherein the count of the solution reacted without addition of the compound is “control” and the count of the solution without addition of the compound and ATP is “blank”.

In test [3] the target is T3, TIE2 Receptor Kinase (TIE2) (Homo sapiens, UniProt Q02763).
T3 construct: TIE2 intracellular domain protein (UPSTATE); purchased UPSTATE
T3 sequence (Q02763 770-1124 limits assumed): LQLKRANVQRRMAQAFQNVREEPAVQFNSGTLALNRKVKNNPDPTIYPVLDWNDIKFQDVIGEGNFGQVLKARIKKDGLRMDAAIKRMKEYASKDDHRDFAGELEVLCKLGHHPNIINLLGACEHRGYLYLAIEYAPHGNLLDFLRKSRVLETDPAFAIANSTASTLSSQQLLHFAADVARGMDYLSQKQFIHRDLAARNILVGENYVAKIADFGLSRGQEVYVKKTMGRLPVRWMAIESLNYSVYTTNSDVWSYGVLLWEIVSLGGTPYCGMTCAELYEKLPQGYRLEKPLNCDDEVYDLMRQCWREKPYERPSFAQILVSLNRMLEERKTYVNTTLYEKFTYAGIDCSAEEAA
Nature of the test: Determination of TIE2 receptor kinase (TIE2) inhibitory activity (alpha screen). The test is classed as biochemical. To be noted: TIE2 intracellular domain protein, 5 μM ATP buffer; read-out: IC50 value (TIE2 kinase inhibition). The procedure: The test compound dissolved in dimethyl sulfoxide (DMSO) was diluted with a buffer (50 mM Tris-HCl, pH 7.5, 5 mM MgCl2, 5 mM MnCl2, 2 mM dithiothreitol, 0.01% Tween-20). A buffer (10 μl) containing 50 ng/ml TIE2 intracellular domain protein (UPSTATE) and 250 ng/ml biotin-labeled polypeptide biotinyl-poly-Glu:Tyr (4:1) (CIS Bio International) was added to the compound solution (5 μl). At 5 min after mixing a kinase enzyme, the compound and a biotin-labeled polypeptide, a buffer (10 μl) containing 5 μM ATP was added to the obtained mixture, the mixture was allowed to react at 25° C. for 10 min. Then, 25 μl of a stop solution (100 mM EDTA·2 sodium salt, 62.5 mM HEPES buffer (pH 7.4), 250 mM NaCl, 0.1% bovine serum albumin, 10 μg/ml Streptavidin Donor beads: PerkinElmer for alpha screen assay, 10 μg/ml Anti-phosphotyrosine (P-Tyr-66) Acceptor beads: PerkinElmer for alpha screen assay) was added to quench the reaction. The reaction solution was stood at 25° C. for 16 hr, and the count was measured using a plate reader·Fusion™ (manufactured by PerkinElmer). The kinase inhibitory rate (%) of the test compound was calculated by the following formula.
as §1, §2
Prism (Graphpad Software) according to the nonlinear-regression sigmoidal dose-response (variable slope) analysis method.

The test system of test [4] is Human umbilical vein endothelial cells (HUVEC). Nature of the test: Vascular endothelial cell growth inhibitory test. To be noted: VEGF 120 ng/mL, culture 5 days, XTT reagent. Type of test: cell-based. The procedure:
Human umbilical vein endothelial cells (HUVEC, purchased from KURABO) were cultured in a gas incubator (37° C., CO2 5%) in a vascular endothelial cell medium (Invitrogen) containing 5% fetal calf serum and a basic fibroblast growth factor (2.5 ng/mL). To be specific, HUVEC suspended in the aforementioned vascular endothelial cell medium (Invitrogen) containing 5% fetal calf serum were seeded into a 96 well flat-bottom plate (50 μL, 3000 cells each well). After culturing overnight, various concentrations of test substance and the final concentration (120 ng/mL) of vascular endothelial growth factor (VEGF) were dissolved in a vascular endothelial cell medium (Invitrogen) containing 5% fetal calf serum and added to each well (50 μL). After culturing for 5 days, an XTT reagent (Wako Pure Chemical Industries, Ltd.) was added to each well (10 μL), and reacted in a gas incubator (37° C., CO2 5%) for 2-3 hr. The absorbance at 450 nm was measured by a microtiter plate reader, and the cell growth inhibitory activity was determined.

Where a name gives a salt, the structure may show the parent alone.

T1 sequence (P35968 786-1356 limits assumed): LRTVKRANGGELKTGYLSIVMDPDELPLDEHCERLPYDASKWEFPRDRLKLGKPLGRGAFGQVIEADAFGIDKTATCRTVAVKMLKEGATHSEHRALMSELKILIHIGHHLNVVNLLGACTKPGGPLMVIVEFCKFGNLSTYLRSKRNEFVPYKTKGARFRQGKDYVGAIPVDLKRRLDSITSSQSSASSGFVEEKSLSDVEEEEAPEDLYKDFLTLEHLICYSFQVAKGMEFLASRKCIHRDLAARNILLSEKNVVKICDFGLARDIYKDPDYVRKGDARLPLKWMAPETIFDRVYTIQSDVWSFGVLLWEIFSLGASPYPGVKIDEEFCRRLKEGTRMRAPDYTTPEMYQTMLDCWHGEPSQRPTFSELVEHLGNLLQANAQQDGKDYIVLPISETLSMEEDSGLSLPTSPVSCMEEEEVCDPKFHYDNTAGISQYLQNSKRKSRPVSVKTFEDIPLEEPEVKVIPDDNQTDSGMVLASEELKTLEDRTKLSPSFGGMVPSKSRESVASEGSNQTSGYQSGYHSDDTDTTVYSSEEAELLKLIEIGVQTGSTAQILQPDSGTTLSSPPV

For `O=C(Nc1cccc(C(F)(F)F)c1)Nc1ccc(Oc2ncnc3ccn(CCOCCO)c23)cc1Cl` [Example 14, N-[2-chloro-4-({5-[2-(2-hydroxyethoxy)ethyl]-5H-pyrrolo[3,2-d]pyrimidin-4-yl}oxy)phenyl]-N′-[3-(trifluoromethyl)phenyl]urea], the inhibition at 1 µM in test [1] was not below 90%. Besides, the IC50 (usually the concentration that gives 50% inhibition) in test [2] is not above 500 nM; in test [3], not above 5 nM; in test [4] (Homo sapiens, 120 h), 33 nM.
For the compound `Cn1ccc2ncnc(Oc3ccc(NC(=O)Nc4cccc(C(F)(F)F)c4)c(F)c3)c21` [Example 29, N-{2-fluoro-4-[(5-methyl-5H-pyrrolo[3,2-d]pyrimidin-4-yl)oxy]phenyl}-N′-[3-(trifluoromethyl)phenyl]urea], the IC50 in test [4] was 4.4 nM.
On to `Cn1ccc2ncnc(Oc3ccc(NC(=O)Nc4cc(C(F)(F)F)ccn4)c(Cl)c3)c21` [Example 30, N-{2-chloro-4-[(5-methyl-5H-pyrrolo[3,2-d]pyrimidin-4-yl)oxy]phenyl}-N′-[4-(trifluoromethyl)pyridin-2-yl]urea], for which, in test [1], the inhibition at 1 µM was not below 90%. In test [4], this compound yielded an IC50 of 2.7 nM.
For `O=C(Nc1cccc(C(F)(F)F)c1)Nc1ccc(Oc2ncnc3cc[nH]c23)cc1Cl` [Example 39, N-[2-chloro-4-(5H-pyrrolo[3,2-d]pyrimidin-4-yloxy)phenyl]-N′-[3-(trifluoromethyl)phenyl]urea], in test [4] (Homo sapiens, 120 h), the IC50 was 4.8 nM.
For the compound `Cn1ccc2ncnc(Oc3ccc(NC(=O)Nc4cc(C(F)(F)F)ccc4F)c(Cl)c3)c21` [Example 40, N-{2-chloro-4-[(5-methyl-5H-pyrrolo[3,2-d]pyrimidin-4-yl)oxy]phenyl}-N′-[2-fluoro-5-(trifluoromethyl)phenyl]urea], the inhibition at 1 µM in test [1] was not below 90%. For the same compound, the half-maximal inhibitory concentration (IC50) in test [3] is not above 5 nM; in test [4] (Homo sapiens, 120 h), 11 nM.
Turning to `Cn1ccc2ncnc(Oc3ccc(NC(=O)Nc4cc(C(F)(F)F)ccn4)c(Cl)c3)c21` [Example 60, N-{2-chloro-4-[(5-methyl-5H-pyrrolo[3,2-d]pyrimidin-4-yl)oxy]phenyl}-N′-[4-(trifluoromethyl)pyridin-2-yl]urea Methanesulfonic Acid Salt], the half-inhibitory concentration (IC50) in test [3] is not above 5 nM; in test [4], 6.5 nM.
For the compound `O=C(Nc1cccc(C(F)(F)F)c1)Nc1ccc(Oc2ncnc3cc[nH]c23)cc1Cl` [Example 116, N-[2-chloro-4-(5H-pyrrolo[3,2-d]pyrimidin-4-yloxy)phenyl]-N′-[3-(trifluoromethyl)phenyl]urea p-toluenesulfonic Acid Salt], in test [1], the inhibition at 1 µM is not below 90%. Moreover, the IC50 in test [2] is not above 500 nM; in test [3] it was not above 5 nM; in test [4] it was 3.4 nM.
`Cc1cc2ncnc(Oc3ccc(NC(=O)Nc4cccc(C(F)(F)F)c4)c(Cl)c3)c2n1C` [Example 124, N-{2-chloro-4-[(5,6-dimethyl-5H-pyrrolo[3,2-d]pytimidin-4-yl)oxy]phenyl}-N′-[3-(trifluoromethyl)phenyl]urea] yielded an IC50 in test [4] of 13 nM.
On to `Cc1cc2ncnc(Oc3ccc(NC(=O)Nc4cccc(C(F)(F)F)c4)c(Cl)c3)c2n1C` [Example 134, N-{2-chloro-4-[(5,6-dimethyl-5H-pyrrolo[3,2-d]pyrimidin-4-yl)oxy]phenyl}-N′-[3-(trifluoromethyl)phenyl]urea hydrochloride], for which, in test [4] (hydrochloride), the half-inhibitory concentration (IC50) was 5.4 nM.
For the compound `Cn1ccc2ncnc(Oc3ccc(NC(=O)Nc4cccc(C(F)(F)F)c4)c(F)c3)c21` [Example 137, N-{2-fluoro-4-[(5-methyl-5H-pyrrolo[3,2-d]pyrimidin-4-yl)oxy]phenyl}-N′-[3-(trifluoromethyl)phenyl]urea Hydrochloride], the inhibition at 1 µM in test [1] is not below 90%. In addition, the IC50 in test [3] was not above 5 nM; in test [4] (Homo sapiens, 120 h), 3.6 nM.

These data come from patent US20090137580A1, “Fused Heterocyclic Derivatives and Use Thereof” (Takeda Pharmaceutical Company Limited, priority 2005, published 2009).
